# Assay results published in patent US9108944B2, “Androgen receptor modulators and uses thereof” (ARAGON PHARMACEUTICALS, INC., priority 2010, dated 2015).
# What was measured:
# AR-VP16 [1] = target: T1, AR-VP16 (Homo sapiens, UniProt P10275); assay: AR-VP16 DNA Binding Assay, agonist mode (HepG2 cells); format: cell-based; conditions: Emax >20x DMSO control = agonist
# T1 sequence (P10275 560-920 limits assumed): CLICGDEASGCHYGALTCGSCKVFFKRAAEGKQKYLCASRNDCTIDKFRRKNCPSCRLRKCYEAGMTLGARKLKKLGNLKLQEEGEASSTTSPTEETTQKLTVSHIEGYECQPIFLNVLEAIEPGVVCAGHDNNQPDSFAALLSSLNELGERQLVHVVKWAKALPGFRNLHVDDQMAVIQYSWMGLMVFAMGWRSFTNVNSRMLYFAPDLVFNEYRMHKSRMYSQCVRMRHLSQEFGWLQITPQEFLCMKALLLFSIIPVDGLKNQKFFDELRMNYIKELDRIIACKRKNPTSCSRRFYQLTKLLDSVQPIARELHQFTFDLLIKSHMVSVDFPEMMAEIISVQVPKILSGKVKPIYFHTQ
# AR-VP16 [2] = target: T1, AR-VP16; assay: AR-VP16 DNA Binding Assay, antagonist mode (HepG2 cells, 0.1 nM R1881); format: cell-based
# Outline: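 Transfected HepG2 cells expressing AR-VP16 received serially diluted compound in charcoal-stripped-serum RPMI the day after transfection, with 0.1 nM R1881 (final) added only for antagonist testing. After 48 h, cells were lysed for measurement.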
SMILES,ARVP16 DNA Binding Assay (Agonist mode): Agonist? (AR-VP16 [1]),IC50 (AR-VP16 [2]) [nM]
"CCC(=O)N1CCC(Oc2ccc(N3C(=S)N(c4cnc(C#N)c(C(F)(F)F)c4)C(=O)C34CCC4)cc2)CC1 [Compound 212, 5-(8-Oxo-5-(4-((1-propionylpiperidin-4-yl)oxy)phenyl)-6-thioxo-5,7-diazaspiro[3.4]octan-7-yl)-3-(trifluoromethyl)picolinonitrile]",Yes (Agonist defined as a compound whose Emax in the ARVP16 DNA Binding Assay (Agonist mode) is >20x DMSO control),< 1000
"CC(C)C(=O)N1CCC(Oc2ccc(N3C(=S)N(c4cnc(C#N)c(C(F)(F)F)c4)C(=O)C34CCC4)cc2)CC1 [Compound 213, 5-(5-(4-((1-isobutyrylpiperidin-4-yl)oxy)phenyl)-8-oxo-6-thioxo-5,7-diazaspiro[3.4]octan-7-yl)-3-(trifluoromethyl)picolinonitrile]",Yes (Agonist defined as a compound whose Emax in the ARVP16 DNA Binding Assay (Agonist mode) is >20x DMSO control),< 1000
"CCOC(=O)N1CCC(Oc2ccc(N3C(=S)N(c4cnc(C#N)c(C(F)(F)F)c4)C(=O)C34CCC4)cc2)CC1 [Compound 214, ethyl 4-(4-(7-(6-cyano-5-(trifluoromethyl)pyridin-3-yl)-8-oxo-6-thioxo-5,7-diazaspiro[3.4]octan-5-yl)phenoxy)piperidine-1-carboxylate]",Yes (Agonist defined as a compound whose Emax in the ARVP16 DNA Binding Assay (Agonist mode) is >20x DMSO control),< 1000
"CC(=O)N1CCC(Oc2ccc(N3C(=S)N(c4cnc(C#N)c(C)c4)C(=O)C34CCC4)cc2)CC1 [Compound 215, 5-(5-(4-((1-acetylpiperidin-4-yl)oxy)phenyl)-8-oxo-6-thioxo-5,7-diazaspiro[3.4]octan-7-yl)-3-methylpicolinonitrile]",Yes (Agonist defined as a compound whose Emax in the ARVP16 DNA Binding Assay (Agonist mode) is >20x DMSO control),< 1000
"CCN1CCC(Oc2ccc(N3C(=S)N(c4cnc(C#N)c(C)c4)C(=O)C34CCC4)cc2)CC1 [Compound 216, 5-(5-(4-((1-Ethylpiperidin-4-yl)oxy)phenyl)-8-oxo-6-thioxo-5,7-diazaspiro[3.4]octan-7-yl)-3-methylpicolinonitrile]",No (Agonist defined as a compound whose Emax in the ARVP16 DNA Binding Assay (Agonist mode) is >20x DMSO control),> 1000
"Cc1cc(N2C(=O)C3(CCC3)N(c3ccc(OC4CCN(CCO)CC4)cc3)C2=S)cnc1C#N [Compound 217, 5-(5-(4-((1-(2-Hydroxyethyl)piperidin-4-yl)oxy)phenyl)-8-oxo-6-thioxo-5,7-diazaspiro[3.4]octan-7-yl)-3-methylpicolinonitrile]",No (Agonist defined as a compound whose Emax in the ARVP16 DNA Binding Assay (Agonist mode) is >20x DMSO control),< 1000
"CS(=O)(=O)N1CCC(Oc2ccc(N3C(=S)N(c4cnc(C#N)c(C(F)(F)F)c4)C(=O)C34CCC4)cc2)CC1 [Compound 219, 5-(5-(4-((1-(methylsulfonyl)piperidin-4-yl)oxy)phenyl)-8-oxo-6-thioxo-5,7-diazaspiro[3.4]octan-7-yl)-3-(trifluoromethyl)picolinonitrile]",Yes (Agonist defined as a compound whose Emax in the ARVP16 DNA Binding Assay (Agonist mode) is >20x DMSO control),< 1000
"CC(C)N1CCC(Oc2ccc(N3C(=S)N(c4cnc(C#N)c(C(F)(F)F)c4)C(=O)C34CCC4)cc2)CC1 [Compound 220, 5-(5-(4-((1-Isopropylpiperidin-4-yl)oxy)phenyl)-8-oxo-6-thioxo-5,7-diazaspiro[3.4]octan-7-yl)-3-(trifluoromethyl)picolinonitrile]",No (Agonist defined as a compound whose Emax in the ARVP16 DNA Binding Assay (Agonist mode) is >20x DMSO control),< 1000
